Legend:
CD4+ CD25− T cells = assay: DNA microarray transcriptional profile of T cells activated in Th17-priming conditions; assay type: cell-based, mouse; conditions: 10 nM
T-cells and fibroblasts = assay: Non-specific effects at high concentrations in vitro; assay type: cell-based; conditions: about 80 nM HF, primary T-cells
[1] = test system: radiation induced fibrosis; conditions: IP, 1-5 μg/mouse; cited from earlier work
[2] = test system: human peripheral blood T cells; conditions: cited from earlier work
RORγt = RORγt expression (real-time PCR) and RORγt retroviral transduction; assay type: cell-based, mouse; conditions: 10 nM HF
Method: T cells were harvested at the indicated times following activation, RNA was isolated and quantitative real-time PCR was performed using RORγt-specific primers and taqman probe. RORγt expression was normalized to Gapdh levels, and the data are presented as fold changes relative to naïve T cells.
Infected T cells were expanded and restimulated on day 4 for intracellular staining. MIG- and MIG.RORγt-transduced cells were gated based on GFP fluorescence.
FIG. 16C is a graph depicting the percent of Th17 cells (IL-17^+ IFNγ^−) in cultures of MIG-transduced (black bars) or MIG.RORγt-transduced (white bars) T cells as determined by intracellular cytokine staining were normalized to DMSO-treated cultures. The data are presented as mean values±SD on duplicate samples. […]
Quantitative real-time PCR: T cells were activated as described above, collected at the indicated times and pellets were flash-frozen in liquid nitrogen. […] RORγt expression was determined after reverse transcription using the message sensor kit (Ambion, Austin, Tex.) per manufacturers instructions and taqman primers and probe as described elsewhere (I. Ivanov, et al., Cell 126, 1121, 2006). Sybrgreen quantitative real-time PCR was performed on T cell RNA samples following reverse transcription via SuperScript II first-strand cDNA synthesis kit (Invitrogen, Carlsbad, Calif.). […]

[3] = test system: T cell-mediated inflammation; conditions: oxazolone-induced; cited from earlier work

## O=C(CC1NCCCC1O)Cn1cnc2cc(Br)c(Cl)cc2c1=O (racemic) [HF, 7-bromo-6-chloro-3-[3-(3-hydroxy-2-piperidinyl)-2-oxopropyl]-4(3H)-quinazolinone]
CD4+ CD25− T cells; 3 and 6 hours
  annotated genes differentially expressed at both time points in HF- versus MAZ1310-treated cells: 81
CD4+ CD25− T cells; 3 hr, Th17-priming conditions
  Aars transcript fold increase, HF vs. MAZ1310: 2.7 ± 0.4 fold
  Aff1 transcript fold increase, HF vs. MAZ1310: 2.3 ± 0.4 fold
  Aldh18a1 transcript fold increase, HF vs. MAZ1310: 2.1 ± 0.5 fold
  Asns transcript fold increase, HF vs. MAZ1310: 6.1 ± 1.2 fold
  Atf3 transcript fold increase, HF vs. MAZ1310: 3.0 ± 0.1 fold
  Atf5 transcript fold increase, HF vs. MAZ1310: 2.4 ± 0.1 fold
  Cars transcript fold increase, HF vs. MAZ1310: 2.2 ± 0.4 fold
  Cd274 transcript fold increase, HF vs. MAZ1310: 2.1 ± 0.2 fold
  Cebpb transcript fold increase, HF vs. MAZ1310: 3.9 ± 0.5 fold
  Cebpg transcript fold increase, HF vs. MAZ1310: 2.5 ± 0.5 fold
  Chd2 transcript fold increase, HF vs. MAZ1310: 2.2 ± 0.3 fold
  Cldn12 transcript fold increase, HF vs. MAZ1310: 3.2 ± 0.7 fold
  Clic4 transcript fold increase, HF vs. MAZ1310: 2.4 ± 0.2 fold
  Cth transcript fold increase, HF vs. MAZ1310: 2.2 ± 0.7 fold
  Cxcl10 transcript fold increase, HF vs. MAZ1310: 2.1 ± 0.3 fold
  D8Ertd56e transcript fold increase, HF vs. MAZ1310: 2.1 ± 0.3 fold
  Ddit3 transcript fold increase, HF vs. MAZ1310: 5.6 ± 1.1 fold
  Eif4Ebp1 transcript fold increase, HF vs. MAZ1310: 6.8 ± 1.8 fold
  Gpt2 transcript fold increase, HF vs. MAZ1310: 10.0 ± 1.2 fold
  Herpud1 transcript fold increase, HF vs. MAZ1310: 2.4 ± 0.3 fold
  Icam1 transcript fold increase, HF vs. MAZ1310: 2.0 ± 0.1 fold
  Irf1 transcript fold increase, HF vs. MAZ1310: 2.0 ± 0.3 fold
  Lars transcript fold increase, HF vs. MAZ1310: 2.3 ± 0.3 fold
  Mpa2l transcript fold increase, HF vs. MAZ1310: 2.3 ± 0.3 fold
  Ncoa7 transcript fold increase, HF vs. MAZ1310: 3.0 ± 0.3 fold
  Nfkbiz transcript fold increase, HF vs. MAZ1310: 2.0 ± 0.3 fold
  Pck2 transcript fold increase, HF vs. MAZ1310: 4.9 ± 0.8 fold
  Pdcd1lg2 transcript fold increase, HF vs. MAZ1310: 3.2 ± 0.7 fold
  Phgdh transcript fold increase, HF vs. MAZ1310: 3.8 ± 0.9 fold
  Psat1 transcript fold increase, HF vs. MAZ1310: 2.1 ± 0.5 fold
  Psph transcript fold increase, HF vs. MAZ1310: 3.5 ± 0.4 fold
  Pvr transcript fold increase, HF vs. MAZ1310: 2.0 ± 0.3 fold
  Pycr1 transcript fold increase, HF vs. MAZ1310: 4.6 ± 0.7 fold
  Pycs transcript fold increase, HF vs. MAZ1310: 2.1 ± 0.2 fold
  Sars1 transcript fold increase, HF vs. MAZ1310: 2.0 ± 0.3 fold
  Sesn2 transcript fold increase, HF vs. MAZ1310: 2.6 ± 0.3 fold
  Slamf7 transcript fold increase, HF vs. MAZ1310: 2.2 ± 0.4 fold
  Slc1a4 transcript fold increase, HF vs. MAZ1310: 3.2 ± 0.9 fold
  Slc5a9 transcript fold increase, HF vs. MAZ1310: 2.4 ± 0.3 fold
  Slc7a3 transcript fold increase, HF vs. MAZ1310: 2.0 ± 0.2 fold
  Slc14a1 transcript fold increase, HF vs. MAZ1310: 2.0 ± 0.1 fold
  Trib3 transcript fold increase, HF vs. MAZ1310: 7.1 ± 2.0 fold
  Trim12 transcript fold increase, HF vs. MAZ1310: 2.4 ± 0.1 fold
  Vegfa transcript fold increase, HF vs. MAZ1310: 3.2 ± 0.2 fold
  Xist transcript fold increase, HF vs. MAZ1310: 3.5 ± 1.7 fold
CD4+ CD25− T cells; 6 hr, Th17-priming conditions
  Aars transcript fold increase, HF vs. MAZ1310: 2.6 ± 0.2 fold
  Aff1 transcript fold increase, HF vs. MAZ1310: 2.6 ± 0.3 fold
  Aldh18a1 transcript fold increase, HF vs. MAZ1310: 2.7 ± 0.2 fold
  Asns transcript fold increase, HF vs. MAZ1310: 7.1 ± 0.5 fold
  Atf3 transcript fold increase, HF vs. MAZ1310: 3.2 ± 0.5 fold
  Atf5 transcript fold increase, HF vs. MAZ1310: 8.9 ± 1.0 fold
  Cars transcript fold increase, HF vs. MAZ1310: 2.2 ± 0.3 fold
  Cd274 transcript fold increase, HF vs. MAZ1310: 2.0 ± 0.1 fold
  Cebpb transcript fold increase, HF vs. MAZ1310: 8.0 ± 0.2 fold
  Cebpg transcript fold increase, HF vs. MAZ1310: 3.1 ± 0.5 fold
  Chd2 transcript fold increase, HF vs. MAZ1310: 2.5 ± 0.5 fold
  Cldn12 transcript fold increase, HF vs. MAZ1310: 4.6 ± 0.5 fold
  Clic4 transcript fold increase, HF vs. MAZ1310: 2.8 ± 0.2 fold
  Cth transcript fold increase, HF vs. MAZ1310: 16.0 ± 1.6 fold
  Cxcl10 transcript fold increase, HF vs. MAZ1310: 2.1 ± 0.1 fold
  Ddit3 transcript fold increase, HF vs. MAZ1310: 5.0 ± 0.7 fold
  Eif4Ebp1 transcript fold increase, HF vs. MAZ1310: 5.3 ± 0.3 fold
  Gpt2 transcript fold increase, HF vs. MAZ1310: 16.7 ± 2.2 fold
  Herpud1 transcript fold increase, HF vs. MAZ1310: 2.7 ± 0.1 fold
  Icam1 transcript fold increase, HF vs. MAZ1310: 2.8 ± 0.3 fold
  Irf1 transcript fold increase, HF vs. MAZ1310: 2.6 ± 0.2 fold
  Lars transcript fold increase, HF vs. MAZ1310: 2.1 ± 0.0 fold
  Mpa2l transcript fold increase, HF vs. MAZ1310: 7.3 ± 1.7 fold
  Ncoa7 transcript fold increase, HF vs. MAZ1310: 3.2 ± 0.5 fold
  Nfkbiz transcript fold increase, HF vs. MAZ1310: 1.9 ± 0.3 fold
  Pck2 transcript fold increase, HF vs. MAZ1310: 7.4 ± 0.9 fold
  Pdcd1lg2 transcript fold increase, HF vs. MAZ1310: 2.5 ± 0.3 fold
  Phgdh transcript fold increase, HF vs. MAZ1310: 4.2 ± 0.3 fold
  Psat1 transcript fold increase, HF vs. MAZ1310: 2.6 ± 0.0 fold
  Psph transcript fold increase, HF vs. MAZ1310: 3.4 ± 0.3 fold
  Pvr transcript fold increase, HF vs. MAZ1310: 2.0 ± 0.1 fold
  Pycr1 transcript fold increase, HF vs. MAZ1310: 6.6 ± 0.4 fold
  Pycs transcript fold increase, HF vs. MAZ1310: 2.3 ± 0.1 fold
  Sars1 transcript fold increase, HF vs. MAZ1310: 2.3 ± 0.1 fold
  Sesn2 transcript fold increase, HF vs. MAZ1310: 2.3 ± 0.2 fold
  Slamf7 transcript fold increase, HF vs. MAZ1310: 2.1 ± 0.2 fold
  Slc1a4 transcript fold increase, HF vs. MAZ1310: 4.6 ± 0.4 fold
  Slc5a9 transcript fold increase, HF vs. MAZ1310: 5.7 ± 0.6 fold
  Slc7a3 transcript fold increase, HF vs. MAZ1310: 6.5 ± 0.9 fold
  Slc14a1 transcript fold increase, HF vs. MAZ1310: 6.6 ± 0.4 fold
  Trib3 transcript fold increase, HF vs. MAZ1310: 18.5 ± 8.5 fold
  Trim12 transcript fold increase, HF vs. MAZ1310: 4.9 ± 0.7 fold
  Vegfa transcript fold increase, HF vs. MAZ1310: 5.8 ± 0.5 fold
  Xist transcript fold increase, HF vs. MAZ1310: 2.1 ± 0.7 fold
T-cells and fibroblasts
  T-cell proliferation at high concentrations: generalized inhibition
[1]
  radiation induced fibrosis: prevented radiation induced fibrosis
  toxic effect in mice: without evident toxic effect
[2]; 80 nM HF, crude preparation of primary T-cells
  NFkB activation and T-cell secretion of cytokines: broadly suppress
[2]; Lieba studies, read-out: 50% inhibition of cytokine secretion, NF-kB activation, p38 phosphorylation
  IC50: 0.02 to 0.04 µM
[2]; anti-CD3 activated T cells
  levels of cytokine secretion, NF-kB activation and p38 phosphorylation: generally reduced levels
RORγt
  upregulation of RORγt or RORγ during Th17 differentiation: did not interfere
[3]
  T cell-mediated inflammation (delayed-type hypersensitivity): inhibits this T cell-mediated inflammation
